For experiment [1], the system named is MDA-MB-468 breast cancer cells. In words: MTT anti-cancer assay, MDA-MB-468 breast cancer cells. Conditions: at 10 μM, 6 days. Format: cell-based, human. An excerpt: The anti-cancer activity of the compounds of the invention herein have been tested in in vitro assays using a microculture assay with 3-(4,5-dimethylthiazol-2-yl)-2,5-diphenyltetrazolium bromide (“MTT”) a test well known to those skilled in the art. This assay has an advantage over in vivo assay in that results are obtained within a week as opposed to several months. The assay can be carried out in 96-well microtiter plates. The MTT assay is based on the production of a dark blue formazan product by dehydrogenase in the mitochondria of live tumor cells after exposure to drug for 6 days [M. C. […] Thus, only live cells are stained and can be measured at 595 nm. […]
Treatment: Before commencing drug treatment, cells were replenished with media containing 0.5% FCS. […] As an end point, the amount of surviving cells (Live cells) was measured using a standard […] assay (MTT based), and calculated as percentage of cells treated with vehicle (DMSO) alone (% control).
MTT assay: The assay is based on the cleavage of the yellow tetrazolium salt MTT to purple formazan crystals by dehydrogenase activity in active mitochondria. […] The formazan crystals formed are solubilized and the resulting colored solution is quantified using a scanning multiwell spectrophotometer. […]

For a further experiment, the target named is T1, PPARγ (Homo sapiens, UniProt P37231).
T1 construct: expressed in transfected cells; host or cells: CV-1 (green monkey kidney) cells, transient calcium phosphate transfection
T1 sequence (P37231 238-503 limits assumed): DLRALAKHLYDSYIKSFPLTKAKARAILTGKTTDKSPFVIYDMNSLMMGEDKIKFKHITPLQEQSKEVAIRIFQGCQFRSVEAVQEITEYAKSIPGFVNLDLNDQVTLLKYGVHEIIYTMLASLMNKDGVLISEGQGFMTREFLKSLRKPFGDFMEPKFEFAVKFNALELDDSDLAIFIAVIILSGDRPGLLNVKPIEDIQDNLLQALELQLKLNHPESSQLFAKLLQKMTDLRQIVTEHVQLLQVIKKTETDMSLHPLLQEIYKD
The experiment is described as follows: In vitro transactivation assay in CV-1 cells, antagonism of BRL49653-induced Gal-PPARγ activation. Format: cell-based. As to conditions: with 1 μM agonist BRL49653, dose-dependent. From the text:
In vitro screens such as the transactivation assay can be used to measure the ability of a compound to inhibit a nuclear receptor regulating lipid or carbohydrate uptake, synthesis or metabolism. In the assay described herein compounds can be identified that can inhibit activation of the following nuclear receptors: LXR, PPARα, PPARγ and FXR. This activity can be useful to treat lipid disorders such as hypercholesteremia and obesity.
Cell line: Kidney Green Monkey CV-1 cells.
Growing culturing medium: Dulbecco's modified Eagle's medium (DMEM) supplememnted with 10% fetal calf serum (FCS).
Procedure: CV-1 cells were plated in 48 well-plate culture plates, at a density of 10,000 cells/well, 24 h prior to transfection. One to three hours before transfection, cells were fed with fresh medium. A modified calcium phosphate precipitation procedure was used for transient transfection (Pfahl, M. et al., 1990, Methods in Enzymology 189: 256).
Typically, 40 ng reporter plasmid and 20 ng of each receptor expression vector were mixed, together with 10 ng of β-galactosidase control plasmid (pCH110, Pharmacia, Piscataway, N.J.) and Bluescript plasmid to obtain a total of 400 ng DNA per well. To this mixture 1 μl of 2.5M CaCl2 and 10 μl of BBS buffer, pH 6.95, were added afterward. […]

The values that follow come from patent publication US7071218B2, “N-substituted heterocycles for the treatment of hypercholesteremia, dyslipidemia and other metabolic disorders; cancer, and other diseases” (Incyte San Diego Incorporated, priority 2001, dated 2006).

On to `CN(C)c1cc2c(cc1-c1ccc3cc(/C=C4\SC(=S)N(CC(=O)O)C4=O)ccc3c1)C(C)(C)CCC2(C)C` [Compound 7, {5-[6-(3-Dimethylamino-5,5,8,8-tetramethyl-5,6,7,8-tetrahydro-naphthalen-2-yl)-naphthalen-2-ylmethylene]-4-oxo-2-thioxo-thiazolidin-3-yl}-acetic acid], for which, in experiment [1], the cells killed is ~80%. For the same molecule, the inhibition at 10 µM at PPARγ lay within 80 to 90%.

A word on the inhibition: it is the drop in the measured response relative to a control, in per cent. A low value points to little suppression.
